Each molecule was assayed against USP7 (Homo sapiens (Human), UniProt Q93009) (assay: USP7 fluorescence polarisation (FP) biochemical assay, ubiquitin-Lys-TAMRA substrate). Conditions: Table 4, biochemical assay; average of at least duplicate experiments; read-out: USP7 IC50.
Outline: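 Full-length His6-USP7 (2.5 nM) incubated ± inhibitor (8-point dilutions, 200 to 0.1 μM before addition) in 50 mM HEPES pH 7.2, 150 mM NaCl, 0.5 mM EDTA, 5 mM DTT, 0.05% BSA, 0.05% CHAPS. Ubiquitin-Lys-TAMRA cleavage followed by FP (ex 530/em 575 nm) every 15 min for 1.5 h; normalised to no-compound control.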

Sequence of USP7 (Q93009 whole entry): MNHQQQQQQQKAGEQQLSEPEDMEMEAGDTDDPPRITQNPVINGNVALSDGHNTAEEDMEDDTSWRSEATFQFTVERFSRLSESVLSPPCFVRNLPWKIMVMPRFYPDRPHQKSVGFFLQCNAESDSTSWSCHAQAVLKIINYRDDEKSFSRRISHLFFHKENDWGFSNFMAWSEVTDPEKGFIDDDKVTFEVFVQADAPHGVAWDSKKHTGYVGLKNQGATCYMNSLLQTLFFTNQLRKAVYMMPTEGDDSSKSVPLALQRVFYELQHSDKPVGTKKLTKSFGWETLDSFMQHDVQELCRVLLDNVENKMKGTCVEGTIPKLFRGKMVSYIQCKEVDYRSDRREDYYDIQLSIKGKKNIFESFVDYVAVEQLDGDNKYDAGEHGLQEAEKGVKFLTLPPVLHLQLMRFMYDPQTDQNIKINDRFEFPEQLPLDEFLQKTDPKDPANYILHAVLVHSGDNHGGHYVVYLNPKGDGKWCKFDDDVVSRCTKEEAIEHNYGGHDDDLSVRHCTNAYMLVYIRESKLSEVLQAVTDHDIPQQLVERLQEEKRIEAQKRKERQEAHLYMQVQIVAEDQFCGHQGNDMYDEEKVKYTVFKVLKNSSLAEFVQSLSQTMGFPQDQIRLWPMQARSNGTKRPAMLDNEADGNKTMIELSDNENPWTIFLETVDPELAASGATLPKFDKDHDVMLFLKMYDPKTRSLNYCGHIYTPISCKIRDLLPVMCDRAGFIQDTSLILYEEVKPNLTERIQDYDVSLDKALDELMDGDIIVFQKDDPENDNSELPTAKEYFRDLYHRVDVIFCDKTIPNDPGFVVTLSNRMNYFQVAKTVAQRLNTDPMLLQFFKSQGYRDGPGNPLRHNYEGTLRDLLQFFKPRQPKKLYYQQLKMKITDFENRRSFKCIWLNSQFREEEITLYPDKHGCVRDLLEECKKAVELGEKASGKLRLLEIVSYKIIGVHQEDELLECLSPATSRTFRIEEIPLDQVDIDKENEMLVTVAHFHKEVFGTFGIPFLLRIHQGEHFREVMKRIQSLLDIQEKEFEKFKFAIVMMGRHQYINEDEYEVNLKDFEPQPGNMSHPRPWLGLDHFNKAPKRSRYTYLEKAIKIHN

| IC50 [µM] | SMILES |
| --- | --- |
| 0.25 to 0.999 | CC1(C(=O)N2CCC(O)(Cn3cnc4c(cc(Cl)n4-c4cccc(Br)c4)c3=O)CC2)CC1 [Example 214, 7-(3-Bromophenyl)-6-chloro-3-((4-hydroxy-1-(1-methylcyclopropanecarbonyl)piperidin-4-yl)methyl)-3H-pyrrolo[2,3-d]pyrimidin-4(7H)-one] |
| < 0.25 | O=C(c1cnc(C2CC2)o1)N1CCC(O)(Cn2cnc3c(cc(Cl)n3-c3ccccc3)c2=O)CC1 [Example 215, 6-Chloro-3-((1-(2-cyclopropyloxazole-5-carbonyl)-4-hydroxypiperidin-4-yl)methyl)-7-phenyl-3H-pyrrolo[2,3-d]pyrimidin-4(7H)-one] |
| 0.25 to 0.999 | Cn1cc(C(=O)N2CCC(O)(Cn3cnc4c(cc(Cl)n4-c4ccccc4)c3=O)CC2)cn1 [Example 216, 6-Chloro-3-((4-hydroxy-1-(1-methyl-1H-pyrazole-4-carbonyl)piperidin-4-yl)methyl)-7-phenyl-3H-pyrrolo[2,3-d]pyrimidin-4(7H)-one] |
| < 0.25 | O=C(c1cnc(C2CC2)o1)N1CCC(O)(Cn2cnc3c(cc(Cl)n3-c3cccc(C4CC4)c3)c2=O)CC1 [Example 217, 6-Chloro-3-((1-(2-cyclopropyloxazole-5-carbonyl)-4-hydroxypiperidin-4-yl)methyl)-7-(3-cyclopropylphenyl)-3H-pyrrolo[2,3-d]pyrimidin-4(7H)-one] |
| < 0.25 | CC1(C(=O)N2CCC(O)(Cn3cnc4c(cc(Cl)n4-c4cccc(C5CC5)c4)c3=O)CC2)CC1 [Example 218, 6-Chloro-7-(3-cyclopropylphenyl)-3-((4-hydroxy-1-(1-methylcyclopropanecarbonyl)piperidin-4-yl)methyl)-3H-pyrrolo[2,3-d]pyrimidin-4(7H)-one] |
| < 0.25 | Cn1cc(C(=O)N2CCC(O)(Cn3cnc4c(cc(Cl)n4-c4cccc(C5CC5)c4)c3=O)CC2)cn1 [Example 219, 6-Chloro-7-(3-cyclopropylphenyl)-3-((4-hydroxy-1-(1-methyl-1H-pyrazole-4-carbonyl)piperidin-4-yl)methyl)-3H-pyrrolo[2,3-d]pyrimidin-4(7H)-one] |
| < 0.25 | CC1(C(=O)N2CCC(O)(Cn3cnc4c(cc(Cl)n4-c4ccc(C5CC5)cc4)c3=O)CC2)CC1 [Example 220, 6-Chloro-7-(4-cyclopropylphenyl)-3-((4-hydroxy-1-(1-methylcyclopropanecarbonyl)piperidin-4-yl)methyl)-3H-pyrrolo[2,3-d]pyrimidin-4(7H)-one] |
| < 0.25 | O=C(c1cnc(C2CC2)o1)N1CCC(O)(Cn2cnc3c(cc(Cl)n3-c3ccc(C4CC4)cc3)c2=O)CC1 [Example 221, 6-Chloro-3-((1-(2-cyclopropyloxazole-5-carbonyl)-4-hydroxypiperidin-4-yl)methyl)-7-(4-cyclopropylphenyl)-3H-pyrrolo[2,3-d]pyrimidin-4(7H)-one] |
| < 0.25 | O=C(c1cnc(C2CC2)o1)N1CCC(O)(Cn2cnc3c(cc(Br)n3-c3ccccc3)c2=O)CC1 [Example 222, 6-Bromo-3-((1-(2-cyclopropyloxazole-5-carbonyl)-4-hydroxypiperidin-4-yl)methyl)-7-phenyl-3H-pyrrolo[2,3-d]pyrimidin-4(7H)-one] |
| < 0.25 | CC1(C(=O)N2CCC(O)(Cn3cnc4c(cc(Br)n4-c4ccccc4)c3=O)CC2)CC1 [Example 223, 6-Bromo-3-((4-hydroxy-1-(1-methylcyclopropanecarbonyl)piperidin-4-yl)methyl)-7-phenyl-3H-pyrrolo[2,3-d]pyrimidin-4(7H)-one] |
| < 0.25 | O=C(c1cnc(C2CC2)o1)N1CCC(O)(Cn2cnc3c(cc(I)n3-c3ccccc3)c2=O)CC1 [Example 224, 3-((1-(2-Cyclopropyloxazole-5-carbonyl)-4-hydroxypiperidin-4-yl)methyl)-6-iodo-7-phenyl-3H-pyrrolo[2,3-d]pyrimidin-4(7H)-one] |
| 1 to 200 | CC1(C(=O)N2CCC(O)(Cn3cnc4c(cc(Cl)n4-c4cccc(-n5cc(C(F)(F)F)cn5)c4)c3=O)CC2)CC1 [Example 225, 6-Chloro-3-((4-hydroxy-1-(1-methylcyclopropanecarbonyl)piperidin-4-yl)methyl)-7-(3-(4-(trifluoromethyl)-1H-pyrazol-1-yl)phenyl)-3H-pyrrolo[2,3-d]pyrimidin-4(7H)-one] |
| < 0.25 | CC1(C(=O)N2CCC(O)(Cn3cnc4c(cc(Cl)n4-c4cccc(N5CCOCC5)c4)c3=O)CC2)CC1 [Example 226, 6-Chloro-3-((4-hydroxy-1-(1-methylcyclopropanecarbonyl)piperidin-4-yl)methyl)-7-(3-morpholinophenyl)-3H-pyrrolo[2,3-d]pyrimidin-4(7H)-one] |
| < 0.25 | CC1(C(=O)N2CCC(O)(Cn3cnc4c(cc(Cl)n4-c4cccc(-n5cc(F)cn5)c4)c3=O)CC2)CC1 [Example 227, 6-Chloro-7-(3-(4-fluoro-1H-pyrazol-1-yl)phenyl)-3-((4-hydroxy-1-(1-methylcyclopropanecarbonyl)piperidin-4-yl)methyl)-3H-pyrrolo[2,3-d]pyrimidin-4(7H)-one] |
| < 0.25 | O=C(c1cnc(C2CC2)o1)N1CCC(O)(Cn2cnc3c(cc(Cl)n3-c3ccc(Cl)cc3)c2=O)CC1 [Example 228, 6-Chloro-7-(4-chlorophenyl)-3-((1-(2-cyclopropyloxazole-5-carbonyl)-4-hydroxypiperidin-4-yl)methyl)-3H-pyrrolo[2,3-d]pyrimidin-4(7H)-one] |
| 0.25 to 0.999 | Cn1cc(C(=O)N2CCC(O)(Cn3cnc4c(cc(Cl)n4-c4ccc(Cl)cc4)c3=O)CC2)cn1 [Example 229, 6-Chloro-7-(4-chlorophenyl)-3-((4-hydroxy-1-(1-methyl-1H-pyrazole-4-carbonyl)piperidin-4-yl)methyl)-3H-pyrrolo[2,3-d]pyrimidin-4(7H)-one] |
| 0.25 to 0.999 | Cn1nccc1-c1cc(-n2c(Cl)cc3c(=O)n(CC4(O)CCN(C(=O)c5cnc(C6CC6)o5)CC4)cnc32)ccc1F [Example 230, 6-Chloro-3-((1-(2-cyclopropyloxazole-5-carbonyl)-4-hydroxypiperidin-4-yl)methyl)-7-(4-fluoro-3-(1-methyl-1H-pyrazol-5-yl)phenyl)-3H-pyrrolo[2,3-d]pyrimidin-4(7H)-one] |
| 0.25 to 0.999 | Cn1nccc1-c1cc(-n2c(Cl)cc3c(=O)n(CC4(O)CCN(C(=O)C5(C)CC5)CC4)cnc32)ccc1F [Example 231, 6-Chloro-7-(4-fluoro-3-(1-methyl-1H-pyrazol-5-yl)phenyl)-3-((4-hydroxy-1-(1-methylcyclopropanecarbonyl)piperidin-4-yl)methyl)-3H-pyrrolo[2,3-d]pyrimidin-4(7H)-one] |
| < 0.25 | Cn1cc(-c2cc(-n3c(Cl)cc4c(=O)n(CC5(O)CCN(C(=O)c6cnc(C7CC7)o6)CC5)cnc43)ccc2F)cn1 [Example 232, 6-Chloro-3-((1-(2-cyclopropyloxazole-5-carbonyl)-4-hydroxypiperidin-4-yl)methyl)-7-(4-fluoro-3-(1-methyl-1H-pyrazol-4-yl)phenyl)-3H-pyrrolo[2,3-d]pyrimidin-4(7H)-one] |
| < 0.25 | Cn1cc(-c2cc(-n3c(Cl)cc4c(=O)n(CC5(O)CCN(C(=O)C6(C)CC6)CC5)cnc43)ccc2F)cn1 [Example 233, 6-Chloro-7-(4-fluoro-3-(1-methyl-1H-pyrazol-4-yl)phenyl)-3-((4-hydroxy-1-(1-methylcyclopropanecarbonyl)piperidin-4-yl)methyl)-3H-pyrrolo[2,3-d]pyrimidin-4(7H)-one] |
| < 0.25 | CC1(C(=O)N2CCC(O)(Cn3cnc4c(cc(C#N)n4-c4ccccc4)c3=O)CC2)CC1 [Example 234, 3-((4-Hydroxy-1-(1-methylcyclopropanecarbonyl)piperidin-4-yl)methyl)-4-oxo-7-phenyl-4,7-dihydro-3H-pyrrolo[2,3-d]pyrimidine-6-carbonitrile] |
| < 0.25 | [2H]C1([2H])Oc2ccc(-n3c(Cl)cc4c(=O)n(CC5(O)CCN(C(=O)c6cnc(C7CC7)o6)CC5)cnc43)cc2O1 [Example 236, 7-(Benzo[d][1,3]dioxol-5-yl-2,2-d2)-6-chloro-3-((1-(2-cyclopropyloxazole-5-carbonyl)-4-hydroxypiperidin-4-yl)methyl)-3,7-dihydro-4H-pyrrolo[2,3-d]pyrimidin-4-one] |
| 1 to 200 | Cn1nc2c(=O)n(CC3(O)CCN(C(=O)C4(C)CC4)CC3)cnc2c1-c1ccc(CN)cc1 [Example 237, 3-(4-(Aminomethyl)phenyl)-6-((4-hydroxy-1-(1-methylcyclopropane-1-carbonyl)piperidin-4-yl)methyl)-2-methyl-2,6-dihydro-7H-pyrazolo[4,3-d]pyrimidin-7-one] |
| 0.25 to 0.999 | Cn1nc2c(=O)n(CC3(O)CCN(C(=O)c4cnc(C5CC5)o4)CC3)cnc2c1-c1ccc(CN)cc1 [Example 238, 3-(4-(Aminomethyl)phenyl)-6-((1-(2-cyclopropyloxazole-5-carbonyl)-4-hydroxypiperidin-4-yl)methyl)-2-methyl-2,6-dihydro-7H-pyrazolo[4,3-d]pyrimidin-7-one] |
| < 0.25 | COc1ccc(-n2c(Cl)cc3c(=O)n(CC4(O)CCN(C(=O)C5(C)CC5)CC4)cnc32)cc1OC [Example 239, 6-Chloro-7-(3,4-dimethoxyphenyl)-3-((4-hydroxy-1-(1-methylcyclopropane-1-carbonyl)piperidin-4-yl)methyl)-3,7-dihydro-4H-pyrrolo[2,3-d]pyrimidin-4-one] |
| < 0.25 | COc1ccc(-n2c(Cl)cc3c(=O)n(CC4(O)CCN(C(=O)c5cnc(C6CC6)o5)CC4)cnc32)cc1OC [Example 240, 6-Chloro-3-((1-(2-cyclopropyloxazole-5-carbonyl)-4-hydroxypiperidin-4-yl)methyl)-7-(3,4-dimethoxyphenyl)-3,7-dihydro-4H-pyrrolo[2,3-d]pyrimidin-4-one] |

| SMILES | IC50 [µM] |
| --- | --- |
| [2H]C1([2H])Oc2ccc(-n3c(Cl)cc4c(=O)n(CC5(O)CCN(C(=O)C6(C)CC6)CC5)cnc43)cc2O1 [Example 235, 7-(Benzo[d][1,3]dioxol-5-yl-2,2-d2)-6-chloro-3-((4-hydroxy-1-(1-methylcyclopropane-1-carbonyl)piperidin-4-yl)methyl)-3,7-dihydro-4H-pyrrolo[2,3-d]pyrimidin-4-one] | < 0.25 |
